{"source": "patent US7862804B2", "about": "“Admistration of C-glycoside compounds for depigmenting/whitening the skin” (Loreal, priority 2005, dated 2011)", "tested_on": "actinic lentigines", "experiment": "Double blind clinical study versus placebo; dermatologist's clinical evaluation of actinic lentigines", "assay_type": "in vivo, human", "method": "A clinical evaluation of actinic lentigines was carried out by a dermatologist at the beginning and at the end of the study according to a scale with 7 levels, including 4 main levels: • 0—absent; • 1—few blemishes; • 2—many blemishes; • 3—a great many blemishes; and 3 intermediate levels (0.5; 1.5; 2.5).\nThe women applied C-β-D-xylopyranoside-2-hydroxypropane at a concentration of 10% by weight with respect to the total weight of the composition in a proportion of 2 mg/cm^2 or the placebo twice daily for 3 months (98 days) to the pre-marked regions."}
{"smiles": "CC(O)C[C@@H]1OC[C@@H](O)[C@H](O)[C@H]1O", "note": "(stereo partly drawn) [C-β-D-xylopyranoside-2-hydroxypropane]", "values": [{"measurement": "mean score of actinic lentigines on the treated side, end of study", "setting": "scale with 7 levels, 0-3, 10% by weight, 2 mg/cm^2 topical twice daily for 3 months (98 days), p=0.08", "result": "0.93+/−0.68"}, {"measurement": "mean score of actinic lentigines on the treated side, before treatment", "setting": "scale with 7 levels, 0 absent to 3 a great many blemishes, 15 women, phototype III, baseline of treated side", "result": "1.07+/−0.62"}, {"measurement": "subjects exhibiting a lower score on the treated side, end of study", "setting": "treated side versus placebo side, after 3 months (98 days) of 10% topical twice daily", "result": 54, "unit": "%"}, {"measurement": "subjects exhibiting a lower score on the treated side, at the beginning of the study", "setting": "treated side versus placebo side, baseline", "result": 13, "unit": "%"}]}
